Literature values as cited in US20150290173A1, “TREATMENT OF SKIN OR MUCOSAL PATHOLOGY” (ZARZATECH, INC., priority 2012, published 2015).
Structures can show the parent of a compound that is named as a salt.

Experiments:
[1] = dog gingivitis model
crevicular neutrophils = details: topical 0.5% oral rinse, humans

CN/C(=N/CCSCc1nc[nH]c1C)NC#N [cimetidine HCL]
anti-gingivitis activity ([1]; dose response study): significant anti-gingivitis activity that increased with increasing dose

CN/C(=N/CCSCc1nc[nH]c1C)NC#N [cimetidine, Cimetidine]
antibacterial function of crevicular neutrophils (crevicular neutrophils): enhanced antibacterial function of crevicular neutrophils
clinical benefit on gingivitis (crevicular neutrophils): no clinical benefit on gingivitis
gingival inflammation and gingival bleeding [1]: significantly reduced gingival inflammation and gingival bleeding
